Measurements: EPA's ToxValDB 9.5 (doi:10.2903/j.efsa.2016.4416)
Converted amounts (≈) assume the structure as drawn.

What was measured:
Neomysis kadiakensis = conditions: for LC50: acute, mortality
Oncorhynchus mykiss = conditions: for LC50: acute, duration: 96 hours, mortality
Tagia sp. = conditions: for NOEC: chronic/long-term, duration: 56 days, reproduction
Folsomia candida = conditions: chronic/long-term; duration: 28 days; mortality
Anas platyrhynchos = conditions: acute; oral; unspecified; mortality
Oryctolagus sp. = conditions: developmental; development
Apis mellifera = conditions: acute, mortality
Bibionidae = conditions: chronic/long-term; duration: 22 days; other

SMILES | LC50 (Neomysis kadiakensis; duration: 48 hours) [µg/mL] | LC50 (Neomysis kadiakensis; duration: 96 hours) [µg/mL] | LC50 (Oncorhynchus mykiss) [µg/mL] | NOEC (Tagia sp.) [mg/kg] | NOAEL (Colinus virginianus; chronic, reproduction) [mg/kg-day] | NOEC (Folsomia candida) [mg/kg] | NOAEL (Rattus norvegicus; subchronic, duration: 90 days, M) [mg/kg-day] | NOEC (Neomysis kadiakensis; chronic/long-term, other) [mg/L] | LD50 (Anas platyrhynchos) [mg/kg-day] | NOEC (Oncorhynchus mykiss; chronic/long-term, duration: 28 days, growth) [mg/L] | NOAEL (Oryctolagus sp.) [mg/kg-day] | LD50 (Rattus norvegicus; acute, mortality) [mg/kg] | NOAEL (Rattus norvegicus; chronic, duration: 2 years, histopathology: nonneoplastic) [mg/kg-day] | NOAEL (Rattus norvegicus; reproduction developmental, organ weight) [mg/kg-day] | LC50 (Tagia sp.; acute, duration: 14 days, mortality) [mg/kg] | LD50 (Apis mellifera; dermal) [µg/piece] | LD50 (Apis mellifera; oral, unspecified) [µg/piece] | NOEC (Bibionidae) [mg/L] | LD50 (Colinus virginianus; acute, oral, mortality) [mg/kg-day]
CS(=O)(=O)c1cc(C(F)(F)F)ccc1C(=O)C(C#N)C(=O)C1CC1 (configuration not stated) | 24 (≈ 66.8 µM) | 3.7 (≈ 10.3 µM) | > 15 | 9 | 25 | > 100 | – | – | – | – | – | – | – | – | – | – | – | – | –
CS(=O)(=O)c1cc(C(F)(F)F)ccc1C(=O)O [2-Methylsulfonyl-4-trifluoromethylbenzoic acid] | – | – | – | – | – | – | 769 | – | – | – | – | – | – | – | – | – | – | – | –
CS(=O)(=O)c1cc(C(F)(F)F)ccc1C(=O)c1cnoc1C1CC1 [Isoxaflutole] | > 0.077 | – | > 1.7 | 8.9 | – | – | – | 0.001 | > 2150 | 0.08 | 5 | > 5000 | 2 | 2 | > 500 | > 100 | > 109 | 0.1 | > 2150
